Assay: mn = molality of the nth substance listed, in mol/kg
Details: 298.15 K, 101 kPa, Liquid, Taylor dispersion method

CCCCCCCCCCP(C)(C)=O [decyldimethylphosphine oxide] + O
Details	binary diffusion coefficient [m2/s]
m1 = 0	5.9e-10
m1 = 0.002	5.8e-10
m1 = 0.003	5.28e-10
m1 = 0.004	2.07e-10
m1 = 0.0077	1.75e-10
m1 = 0.0111	1.56e-10
m1 = 0.0176	1.69e-10
m1 = 0.0215	1.63e-10
m1 = 0.0296	1.55e-10
m1 = 0.04	1.58e-10

From the NIST ThermoML archive (doi:10.1021/je800085u)
